Laboratory results published in US5891842A, “Methodology for eliciting an analgesic response in a living subject” (priority 1996, dated 1999).
Like-named read-outs stand apart in the source and are kept apart here.

Experiments:
[1] = cited from earlier work
[2] = oral, antitussive doses, cited from earlier work; for DOSE (figures in parentheses): not necessarily equieffective
[3] = system: Adult male Sprague-Dawley rats; test: Tail-flick analgesic testing after intrathecal administration; type: in vivo, rat
[4] = system: rats with spinal cord transection; test: Tail-flick analgesic testing after intrathecal administration, acutely transected spinal cord; type: in vivo, rat; conditions: 0.2 ug MS alone
[5] = 10 mg/70 kg body weight; cited from earlier work
[6] = intrathecal administration of morphine; cited from earlier work
[7] = analgesic effects after subcutaneous administration

Row | Compound | DURATION OF ACTION [1, 7] [h] | DOSE: amount given subcutaneously that produces approximately the same analgesic effects as 10 mg of morphine ([1]; in vivo, sc) | other results
1 | CCC(=O)OC1(c2ccccc2)CCN(C)CC1C (stereo not shown) [Alphaaprodine, Alphaprodine] | 1 to 2 | 40 | 
2 | COc1ccc2c3c1O[C@H]1[C@@H](O)C=C[C@H]4[C@@H](C2)N(C)CC[C@@]341 [Codeine] |  | 120 | DURATION OF ACTION (figures in parentheses) [2]: 4 to 6 h; DOSE (figures in parentheses) [2]: 10 to 20 mg
3 | C[C@H](CN1CCOCC1)C(C(=O)N1CCCC1)(c1ccccc1)c1ccccc1 [Dextromoramide] | 4 to 5 | 5-7.5 | 
4 | CCC(=O)C(CC(C)N1CCCCC1)(c1ccccc1)c1ccccc1 (stereo not shown) [Dipipanone] | 4 to 5 | 20-25 | 
5 | COc1ccc2c3c1O[C@H]1[C@@H](O)CC[C@H]4[C@@H](C2)N(C)CC[C@@]341 [Drocode, dihydrocodeine] | 4 to 5 | 60 | 
6 | CC(=O)Oc1ccc2c3c1O[C@H]1[C@@H](OC(C)=O)C=C[C@H]4[C@@H](C2)N(C)CC[C@@]341 [Heroin, diacetylmorphine] | 3 to 4 | 4 | DOSE (figures in parentheses) [2]: 2 to 8 mg
7 | COc1ccc2c3c1O[C@H]1C(=O)CC[C@H]4[C@@H](C2)N(C)CC[C@]314 [Hyrocodone, dihydrocodeinone] |  |  | DURATION OF ACTION (figures in parentheses) [2]: 4 to 8 h; DOSE (figures in parentheses) [2]: 5 to 10 mg
8 | CN1CC[C@]23CCCC[C@H]2[C@H]1Cc1ccc(O)cc13 [Levorphanol] | 4 to 5 | 2 | 
9 | CN1CC[C@]23c4c5ccc(O)c4O[C@H]2[C@@H](O)C=C[C@H]3[C@H]1C5.O=S(=O)(O)O [MS, morphine sulphate] |  |  | analgesic response ([3]; 0.02 ug MS alone, intrathecal): weak response; analgesic response, peak ([3]; 0.1 ug MS alone, intrathecal): approximately 30 % MPE; analgesic response ([3]; 0.5 ug MS alone, intrathecal): maximal analgesic response between 5 and 30 min; declined to baseline ([3]; 0.5 ug MS alone, intrathecal): 60 min; analgesic response [4]: modest analgesic response
10 | CCOC(=O)C1(c2ccccc2)CCN(C)CC1 [Meperidine] | 2 to 4 | 75-100 | 
11 | CCC(=O)C(CC(C)N(C)C)(c1ccccc1)c1ccccc1 (stereo not shown) [Methadone] | 3 to 5 | 8-10 | 
12 | CN1CC[C@]23c4c5ccc(O)c4O[C@H]2[C@@H](O)C=C[C@H]3[C@H]1C5 [Morphine] |  | 10 | relieves post-operative pain satisfactorily (share of patients) [5]: about two-thirds; DURATION OF ACTION ([1]; in vivo, sc): 4-5; effect on hyperalgesia of administered substance P [6]: blocks the hyperalgesic effects
13 | COc1ccc2c3c1O[C@H]1C(=O)CC[C@@]4(O)[C@@H](C2)N(C)CC[C@]314 [Oxycodone, dihydrohydroxycodeinone] | 4 to 5 | 10-15 | 
14 | CN1CC[C@]23c4c5ccc(O)c4O[C@H]2C(=O)CC[C@@]3(O)[C@H]1C5 [Oxymorphone, dihydrohydroxymorphinone] | 4 to 5 | 1.0-1.5 | 
15 | CCC(=O)C(CC(C)N1CCOCC1)(c1ccccc1)c1ccccc1 (stereo not shown) [Phenadoxone] | 1 to 3 | 10-20 | 
16 | CN1CC[C@]23c4c5ccc(OCCN6CCOCC6)c4O[C@H]2[C@@H](O)C=C[C@H]3[C@H]1C5 [Pholcodine, β-morpholinylethylmorphine] |  |  | DURATION OF ACTION (figures in parentheses) [2]: 4 to 5 h; DOSE (figures in parentheses) [2]: 5 to 15 mg
17 | C=CCN1CC[C@]23c4c5ccc(O)c4O[C@H]2C(=O)CC[C@@]3(O)[C@H]1C5 [naloxone] |  |  | analgesic response produced by MS in combination with SP after naloxone pretreatment ([3]; naloxone 1.0 ug intrathecal 10 min prior to 0.1 ug MS + 10 pmol SP): essentially eliminated
